The source of these data is article PMC12621043, “Un-LOK-ing a New Approach for Conformational Selective Targeting of STK10 (LOK)” (ACS Medicinal Chemistry Letters, 2025).

Holding throughout (assay): DSF Tm panel
Holding throughout (assay type): binding
Details in all cases: 10 μM compound

The target of one experiment is T1, PHKG2A (Homo sapiens, UniProt P15735).
T1 construct: purchased in-house DSF kinase panel (SGC-style construct names; the trailing letter is the construct ID)
T1 sequence (P15735 6-293): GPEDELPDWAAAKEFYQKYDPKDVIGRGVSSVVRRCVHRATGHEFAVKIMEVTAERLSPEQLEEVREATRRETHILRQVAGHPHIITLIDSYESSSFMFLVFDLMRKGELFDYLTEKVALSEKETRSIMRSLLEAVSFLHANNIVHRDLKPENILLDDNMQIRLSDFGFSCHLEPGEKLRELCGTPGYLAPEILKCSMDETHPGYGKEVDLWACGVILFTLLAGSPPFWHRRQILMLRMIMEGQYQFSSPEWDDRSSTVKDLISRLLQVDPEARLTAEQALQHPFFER

The target of a further experiment is T2, EPHB1A (Homo sapiens, UniProt P54762).
T2 construct: purchased in-house DSF kinase panel (SGC-style construct names; the trailing letter is the construct ID)
T2 sequence (P54762 602-896): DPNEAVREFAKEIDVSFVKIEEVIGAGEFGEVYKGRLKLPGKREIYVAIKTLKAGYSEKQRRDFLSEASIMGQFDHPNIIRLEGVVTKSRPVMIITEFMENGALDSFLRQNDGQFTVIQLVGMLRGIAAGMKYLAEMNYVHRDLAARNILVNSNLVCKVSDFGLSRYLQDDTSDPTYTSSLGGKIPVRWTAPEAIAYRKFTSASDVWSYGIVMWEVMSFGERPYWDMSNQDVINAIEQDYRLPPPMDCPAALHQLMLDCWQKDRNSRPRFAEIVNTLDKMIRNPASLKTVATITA

For a further experiment, the target named is T3, TIF1A (Homo sapiens, UniProt O15164).
T3 construct: purchased in-house DSF kinase panel (SGC-style construct names; the trailing letter is the construct ID)
T3 sequence (O15164 1-1050): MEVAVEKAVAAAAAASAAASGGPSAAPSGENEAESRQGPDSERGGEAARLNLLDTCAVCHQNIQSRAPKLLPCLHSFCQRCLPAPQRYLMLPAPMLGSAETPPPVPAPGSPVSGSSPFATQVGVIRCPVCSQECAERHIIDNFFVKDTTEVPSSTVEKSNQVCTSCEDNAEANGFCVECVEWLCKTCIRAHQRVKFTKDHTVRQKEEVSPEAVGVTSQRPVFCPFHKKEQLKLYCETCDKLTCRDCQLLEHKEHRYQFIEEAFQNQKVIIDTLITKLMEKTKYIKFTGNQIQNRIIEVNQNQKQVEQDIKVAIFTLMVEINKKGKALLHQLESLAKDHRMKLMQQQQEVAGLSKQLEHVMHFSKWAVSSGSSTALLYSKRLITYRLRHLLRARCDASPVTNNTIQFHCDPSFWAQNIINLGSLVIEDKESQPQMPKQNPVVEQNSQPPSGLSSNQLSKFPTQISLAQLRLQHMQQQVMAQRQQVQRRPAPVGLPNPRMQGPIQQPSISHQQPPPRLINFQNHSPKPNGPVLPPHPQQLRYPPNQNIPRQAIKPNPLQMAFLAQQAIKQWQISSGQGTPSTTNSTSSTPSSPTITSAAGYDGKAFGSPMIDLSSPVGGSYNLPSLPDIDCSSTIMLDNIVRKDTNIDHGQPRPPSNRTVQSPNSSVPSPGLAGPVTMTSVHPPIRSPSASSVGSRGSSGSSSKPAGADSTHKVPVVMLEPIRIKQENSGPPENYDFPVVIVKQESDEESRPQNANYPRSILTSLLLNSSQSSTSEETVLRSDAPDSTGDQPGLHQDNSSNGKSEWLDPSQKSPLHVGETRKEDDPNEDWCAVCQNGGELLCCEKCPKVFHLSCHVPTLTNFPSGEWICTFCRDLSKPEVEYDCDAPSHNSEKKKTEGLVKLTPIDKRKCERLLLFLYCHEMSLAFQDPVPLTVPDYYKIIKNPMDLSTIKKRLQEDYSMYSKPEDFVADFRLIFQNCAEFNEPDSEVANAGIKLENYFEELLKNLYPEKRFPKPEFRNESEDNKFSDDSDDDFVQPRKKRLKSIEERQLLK

In the next experiment the target is T4, HIPK2HSF (Homo sapiens, UniProt Q9H2X6).
T4 construct: purchased in-house DSF kinase panel (SGC-style construct names; the trailing letter is the construct ID)
T4 sequence (Q9H2X6 199-527): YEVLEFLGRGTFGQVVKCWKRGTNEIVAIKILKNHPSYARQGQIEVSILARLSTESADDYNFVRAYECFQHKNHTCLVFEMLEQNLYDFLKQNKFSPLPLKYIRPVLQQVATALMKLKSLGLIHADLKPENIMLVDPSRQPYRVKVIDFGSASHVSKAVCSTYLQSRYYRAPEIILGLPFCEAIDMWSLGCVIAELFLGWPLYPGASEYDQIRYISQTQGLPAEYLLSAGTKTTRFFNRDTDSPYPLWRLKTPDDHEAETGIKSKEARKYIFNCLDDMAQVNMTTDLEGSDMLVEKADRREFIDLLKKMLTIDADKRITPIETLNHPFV

The target of a further experiment is T5, TLK1A (Homo sapiens, UniProt Q9UKI8).
T5 construct: purchased in-house DSF kinase panel (SGC-style construct names; the trailing letter is the construct ID)
T5 sequence (Q9UKI8 456-734): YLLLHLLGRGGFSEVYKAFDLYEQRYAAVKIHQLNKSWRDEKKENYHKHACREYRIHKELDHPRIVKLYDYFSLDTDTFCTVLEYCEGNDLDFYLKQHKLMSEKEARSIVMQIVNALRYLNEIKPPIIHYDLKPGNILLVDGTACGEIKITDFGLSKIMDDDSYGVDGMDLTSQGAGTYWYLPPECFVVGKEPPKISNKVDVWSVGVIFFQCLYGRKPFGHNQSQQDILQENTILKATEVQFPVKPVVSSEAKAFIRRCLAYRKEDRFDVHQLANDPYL

The next experiment has as its target T6, CSNK1EA (Homo sapiens, UniProt P49674).
T6 construct: purchased in-house DSF kinase panel (SGC-style construct names; the trailing letter is the construct ID)
T6 sequence (P49674 1-294): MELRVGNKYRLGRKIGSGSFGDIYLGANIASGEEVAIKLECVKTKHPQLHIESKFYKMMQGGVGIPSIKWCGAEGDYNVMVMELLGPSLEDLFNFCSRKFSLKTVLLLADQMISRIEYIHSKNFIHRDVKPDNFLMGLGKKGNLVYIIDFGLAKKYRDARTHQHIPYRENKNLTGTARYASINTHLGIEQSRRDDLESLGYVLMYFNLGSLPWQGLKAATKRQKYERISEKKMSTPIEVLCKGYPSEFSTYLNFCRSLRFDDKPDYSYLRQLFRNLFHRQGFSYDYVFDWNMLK

For the compound `O=C(NCc1ccccc1)Nc1ccc2cc1OCCOCCNc1ccn3ncc-2c3n1` [compound 16], the ΔTm at 10 µM at PHKG2A was found to be 1.3 °C.

Regarding `O=C(NCc1ccccc1Cl)Nc1ccc2cc1OCCOCCNc1ccn3ncc-2c3n1` [compound 17], the ΔTm at 10 µM on PHKG2A was 0.6 °C.

As to `O=C(NCc1cccc(Cl)c1)Nc1ccc2cc1OCCOCCNc1ccn3ncc-2c3n1` [compound 18], the ΔTm at 10 µM on PHKG2A was 0.4 °C.

Take `O=C(NCc1ccc(Cl)cc1)Nc1ccc2cc1OCCOCCNc1ccn3ncc-2c3n1` [compound 19]: the ΔTm at 10 µM at PHKG2A was 1.2 °C.

Take `O=C(NCc1ccc(Cl)cc1Cl)Nc1ccc2cc1OCCOCCNc1ccn3ncc-2c3n1` [compound 20]: the ΔTm at 10 µM at PHKG2A is 0.8 °C.

Consider `O=C(NCc1ccc(Cl)cc1F)Nc1ccc2cc1OCCOCCNc1ccn3ncc-2c3n1` [compound 21], for which the thermal shift (ΔTm) at 10 µM at PHKG2A was 0.9 °C.

Take `Cc1cc(Cl)ccc1CNC(=O)Nc1ccc2cc1OCCOCCNc1ccn3ncc-2c3n1` [compound 23]: the ΔTm at 10 µM at PHKG2A was determined as 0.5 °C.

Take `Cc1cc(Br)ccc1CNC(=O)Nc1ccc2cc1OCCOCCNc1ccn3ncc-2c3n1` [compound 24]: the ΔTm at 10 µM stood at 0.2 °C on EPHB1A; 1 °C at TIF1A; 0.2 °C at HIPK2HSF; 1 °C on TLK1A; 0.7 °C at CSNK1EA.

Consider `Cc1ccc(F)cc1CNC(=O)Nc1ccc2cc1OCCOCCNc1ccn3ncc-2c3n1` [compound 26], for which the ΔTm at 10 µM at EPHB1A turned out to be 0.3 °C; on TIF1A it was 0.4 °C; on HIPK2HSF, 0.4 °C; on TLK1A, 0.9 °C; on CSNK1EA it was 0.7 °C.

On to `O=C(NCc1ccccc1C(F)(F)F)Nc1ccc2cc1OCCOCCNc1ccn3ncc-2c3n1` [compound 27], for which the ΔTm at 10 µM on EPHB1A stood at 0.3 °C; at TIF1A, 1.3 °C; at HIPK2HSF it was 0.2 °C; at TLK1A it was 1.3 °C; at CSNK1EA, 0 °C.

As to `O=C(NCc1ccc(C(F)(F)F)cc1)Nc1ccc2cc1OCCOCCNc1ccn3ncc-2c3n1` [compound 28], the ΔTm at 10 µM at EPHB1A is 0.5 °C; on TIF1A, 1.6 °C; at HIPK2HSF it was 0.6 °C; on TLK1A, 1.6 °C; at CSNK1EA it was -0.2 °C.

On to `COc1ccccc1CNC(=O)Nc1ccc2cc1OCCOCCNc1ccn3ncc-2c3n1` [compound 29], for which the ΔTm at 10 µM at EPHB1A turned out to be 0.1 °C; on TIF1A, 0.5 °C; on HIPK2HSF, 0.5 °C; on TLK1A, 0.4 °C; at CSNK1EA, 0.7 °C.

In the case of `COc1cccc(CNC(=O)Nc2ccc3cc2OCCOCCNc2ccn4ncc-3c4n2)c1` [compound 30], the ΔTm at 10 µM is 0.2 °C on EPHB1A; 0.3 °C at TIF1A; 0.4 °C at HIPK2HSF; 0.7 °C on TLK1A; 0.7 °C on CSNK1EA.

As to `COc1ccc(CNC(=O)Nc2ccc3cc2OCCOCCNc2ccn4ncc-3c4n2)cc1` [compound 31], the ΔTm at 10 µM on EPHB1A was 0.4 °C; on TIF1A, 0.2 °C; on HIPK2HSF, 0.5 °C; at TLK1A it was 1.1 °C; at CSNK1EA, 0.6 °C.

Take `COc1ccc(CNC(=O)Nc2ccc3cc2OCCOCCNc2ccn4ncc-3c4n2)cc1F` [compound 32]: the ΔTm at 10 µM at EPHB1A was determined as 0.3 °C; at TIF1A, 0.5 °C; on HIPK2HSF it was 0.5 °C; at TLK1A it was 1.2 °C; on CSNK1EA, 0.3 °C.

As to `COc1cc(CNC(=O)Nc2ccc3cc2OCCOCCNc2ccn4ncc-3c4n2)ccc1F` [compound 33], the ΔTm at 10 µM is 0.5 °C on EPHB1A; 0.6 °C on TIF1A; 0.5 °C at HIPK2HSF; 0.9 °C at TLK1A; 0.6 °C on CSNK1EA.

With `C[C@H](NC(=O)Nc1ccc2cc1OCCOCCNc1ccn3ncc-2c3n1)c1ccccc1` [compound 34], the ΔTm at 10 µM at EPHB1A was 0.1 °C; at TIF1A, -0.1 °C; at HIPK2HSF, 0.4 °C; on TLK1A, 0.4 °C; at CSNK1EA it was 0.4 °C.

Consider `CN1CCN(C(=O)Nc2ccc3cc2OCCOCCNc2ccn4ncc-3c4n2)CC1` [compound 35], for which the ΔTm at 10 µM on PHKG2A was -0.1 °C.

In general, ΔTm refers to the shift of the melting midpoint relative to a reference.
